Like-named read-outs stand apart in the source and are kept apart here.
Key:
[1] = target: T1, cysteine-rich domain of the murine macrophage mannose receptor (Cys-MR) (Mus musculus, UniProt Q61830); experiment: microwell inhibition of Cys-MR-Fc binding to immobilized human lutropin
T1 sequence (Q61830 20-154): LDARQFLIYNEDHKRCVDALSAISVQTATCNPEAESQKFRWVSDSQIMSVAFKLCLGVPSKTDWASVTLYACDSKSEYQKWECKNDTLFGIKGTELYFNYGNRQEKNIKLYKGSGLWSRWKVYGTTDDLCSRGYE

[2] = target: T1, cysteine-rich domain of the murine macrophage mannose receptor (Cys-MR); experiment: as above; remark: listed apart in the source

Row | SMILES | IC50 [1] [µM] | IC50 [2] [µM]
1 | CC(=O)N[C@H]1C(O)O[C@H](COS(=O)(=O)O)[C@H](O)[C@@H]1O (some centres unmarked) [6-sulfated N-acetylgalactosamine] | 1300 | –
2 | CC(=O)N[C@H]1C(O)O[C@H](CO)[C@H](OS(=O)(=O)O)[C@@H]1O (some centres unmarked) [4-sulfated N-acetylgalactosamine] | – | 180

From paper PMC2193175 (The Journal of Experimental Medicine, 2000)
